From patent US9321728B2, “Beta-alanine derivatives, pharmaceutically acceptable salts thereof, and pharmaceutical composition comprising same as active ingredient” (KOREA RESEARCH INSTITUTE OF CHEMICAL TECHNOLOGY, priority 2012, dated 2016) come the findings set out here.

Molecules are shown by their SMILES.

The term IC50 denotes the midpoint of a concentration-inhibition curve. Read a low IC50 as higher potency.

In this test the target is human DGAT1 (Homo sapiens (Human), UniProt O75907). In words: Human DGAT1 enzyme inhibition test (phospholipid FlashPlate, [14C]decanoyl-CoA). Format: biochemical. Conditions: for IC50: lysate of Hep3B cells over-expressing human DGAT1 (5 μg/well), didecanoyl glycerol and [14C]decanoyl-CoA substrates; for in vitro inhibition activity with respect to DGAT1: verbal summary of Table 1. The method, then: The cells were treated with 200 μg/ml G-418(Sigma) once every three days for 4 weeks to over-express the human DGAT1, thereby obtaining a stabilized cell line. The over-expressed cells were put into a homogenization buffer [250 mM sucrose, 10 mM Tris-HCl (pH 7.4), 1 mM EDTA] and lysed by a homogenization apparatus. Then, centrifugation was performed with 600×g for 15 minutes to remove cell residue, and the obtained cells were used for an enzyme inhibition test. Human DGAT-1 and mouse DGAT activity was determined as follows: Assay buffer [20 mM HEPES (pH 7.4), 100 mM MgCl2, 0.04% BSA] containing 500 μM of enzyme substrate (didecanoyl glycerol) and 7.5 μM radiolabeled acyl-CoA substrate ([^14C]decanoyl-CoA) was added to each well of a phospholipid FlashPlate (PerkinElmer Life Sciences). A small aliquot of lysate (5 μg/well) or mouse liver microsome (0.1 mg/well) was added to start the reaction, which was allowed to proceed in a 20° C. bath for 1 hour. and maintained overnight at room temperature. Next day, measurement was performed by Wallac 1450 Microbeta Trilux Liquid Scintillation Counter and Luminometer (PerkinElmer Life Science). […] A calculation method of inhibition degree (%) is as follows.
Chain of human DGAT1 (O75907 whole entry): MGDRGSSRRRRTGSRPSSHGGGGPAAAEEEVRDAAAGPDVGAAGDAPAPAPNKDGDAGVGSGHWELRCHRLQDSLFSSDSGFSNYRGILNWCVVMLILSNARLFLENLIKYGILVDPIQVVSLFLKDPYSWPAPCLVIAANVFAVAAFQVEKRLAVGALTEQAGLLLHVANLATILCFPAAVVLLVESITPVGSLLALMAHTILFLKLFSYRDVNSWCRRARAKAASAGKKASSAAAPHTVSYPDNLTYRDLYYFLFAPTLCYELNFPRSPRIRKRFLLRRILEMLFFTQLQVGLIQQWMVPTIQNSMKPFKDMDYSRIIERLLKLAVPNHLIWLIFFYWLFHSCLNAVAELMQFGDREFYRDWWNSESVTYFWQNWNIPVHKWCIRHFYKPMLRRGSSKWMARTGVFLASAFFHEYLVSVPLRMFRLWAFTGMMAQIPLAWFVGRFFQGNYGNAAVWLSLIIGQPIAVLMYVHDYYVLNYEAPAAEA

For `CCc1ccc(-c2ccc(C(=O)NCCC(=O)Nc3ccc([C@H]4CC[C@H](CC(=O)O)CC4)cc3)cc2)cc1` [Compound 93, trans-[4-(4-{3-[(4′-ethylbiphenyl-4-carbonyl)amino]propionylamino}phenyl)cyclohexyl]acetic acid], the IC50 was < 0.05 µM and the “in vitro inhibition activity with respect to DGAT1” value (“in vitro inhibition activity” below) is “good to excellent”.

Turning to `O=C(O)C[C@H]1CC[C@H](c2ccc(NC(=O)CCNC(=O)c3cn(-c4ccccc4)nc3C(F)(F)F)cc2)CC1` [Compound 7, trans-[4-(4-{3-[(1-phenyl-3-trifluoromethyl-1H-pyrazole-4-carbonyl)amino]propionylamino}phenyl)cyclohexyl]acetic acid], the IC50 is < 0.1 µM.

Turning to `O=C(O)C[C@H]1CC[C@H](c2ccc(NC(=O)CCNC(=O)c3nc(-c4ccccc4Cl)oc3Cl)cc2)CC1` [Compound 95, trans-{4-[4-(3-{[5-chloro-2-(2-chlorophenyl)oxazole-4-carbonyl]amino}propionylamino)phenyl]cyclohexyl}acetic acid], the IC50 is < 0.05 µM and the “in vitro inhibition activity” value is recorded as “good to excellent”.

For `O=C(O)C[C@H]1CC[C@H](c2ccc(NC(=O)CCNC(=O)c3nc(-c4ccccc4)oc3C(F)(F)F)cc2)CC1` [Compound 22, sodium; trans-[4-(4-{3-[(2-phenyl-5-trifluoromethyloxazole-4-carbonyl)amino]propionylamino}phenyl)cyclohexyl]acetate], the IC50 was < 0.5 µM.

Consider `O=C(O)C[C@H]1CC[C@H](c2ccc(NC(=O)CCNC(=O)c3nc(-c4ccc(Cl)cc4Cl)oc3C(F)(F)F)cc2)CC1` [Compound 64, trans-{4-[4-(3-{[2-(2,4-dichlorophenyl)-5-trifluoromethyloxazole-4-carbonyl]amino}propionylamino)phenyl]cyclohexyl}acetic acid], for which the IC50 is < 0.05 µM and the “in vitro inhibition activity” value is on record as “good to excellent”.

Regarding `Cc1oc(-c2ccccc2)nc1C(=O)NCCC(=O)Nc1ccc([C@H]2CC[C@H](CC(=O)O)CC2)cc1` [Compound 31, trans-[4-(4-{3-[(5-methyl-2-phenyloxazole-4-carbonyl)amino]propionylamino}phenyl)cyclohexyl]acetic acid], the IC50 was < 0.1 µM.

For `Cc1cccc(C)c1-c1ccc(C(=O)NCCC(=O)Nc2ccc([C@H]3CC[C@H](CC(=O)O)CC3)cc2)cc1` [Compound 75, trans-[4-(4-(3-(2′,6′-dimethylbiphenyl-4-carbonylamino)propionylamino)phenyl)cyclohexyl]acetic acid], the half-maximal inhibitory concentration (IC50) was < 0.1 µM.

For `O=C(O)C[C@H]1CC[C@H](c2ccc(NC(=O)CCNC(=O)c3nc(-c4ccccc4F)oc3C(F)(F)F)cc2)CC1` [Compound 60, trans-{4-[4-(3-{[2-(2-Fluorophenyl)-5-trifluoromethyloxazole-4-carbonyl]amino}propionylamino)phenyl]cyclohexyl}acetic acid], the half-inhibitory concentration (IC50) is < 0.05 µM and the “in vitro inhibition activity” value is reported as “good to excellent”.

For `O=C(O)C[C@H]1CC[C@H](c2ccc(NC(=O)CCNC(=O)c3nc(-c4c(Cl)cccc4Cl)oc3C(F)(F)F)cc2)CC1` [Compound 68, trans-{4-[4-(3-{[2-(2,6-dichlorophenyl)-5-trifluoromethyloxazole-4-carbonyl]amino}propionylamino)phenyl]cyclohexyl}acetic acid], the IC50 was < 0.05 µM and the “in vitro inhibition activity” value is “good to excellent”.

Consider `O=C(O)C[C@H]1CC[C@H](c2ccc(NC(=O)CCNC(=O)c3nc(-c4ccc(F)cc4)oc3C(F)(F)F)cc2)CC1` [Compound 56, trans-{4-[4-(3-{[2-(4-fluorophenyl)-5-trifluoromethyloxazole-4-carbonyl]amino}propionylamino)phenyl]cyclohexyl}acetic acid], for which the IC50 is < 0.5 µM.

`O=C(O)C[C@H]1CC[C@H](c2ccc(NC(=O)CCNC(=O)c3nc(-c4c(Cl)cccc4Cl)oc3C(F)(F)F)cc2)CC1` [Compound 69, sodium; trans-{4-[4-(3-{[2-(2,6-dichlorophenyl)-5-trifluoromethyloxazole-4-carbonyl]amino}propionylamino)phenyl]cyclohexyl}acetate]: the IC50 is < 0.05 µM.
